What follows are substances tested on COLO320DM cells (assay: COLO320DM proliferation assay (CellTiter-Glo)). Conditions: read-out: COLO320DM Proliferation Abs IC50.
Type: cell-based, human
Method: COLO320DM proliferation assay IC50: In some embodiments, inhibition of cell proliferation by provided technologies were assessed using cell lines related to or from certain conditions, disorders or diseases. In some embodiments, cell proliferation was assessed in COLO320DM cells. In some embodiments, assessment was performed using the following procedure: On Day 1, cultured COLO320DM cells in a T75 flask were trypsinized in 3 mL of 0.250% trypsin/EDTA for 5 min and quenched with 10 mL RPMI-1640+4% HI FBS assay media. The cells were spun down at 1200 rpm for 5 min, the cell pellet collected and re-suspended at 5000 cells/mL in assay media. Using a Combi liquid handler, cells were dispensed (50 uL, 250 cells/well) into three 384 well plates. Plates were incubated at 37° C., 5% CO2 for 18-22 h. On day 2, compounds were added. A liquid handling system was used to prepare the compound dilution and dispense compound into assay plates. The compounds were serially diluted 1/2 in 90% DMSO to create a 7 point dose curve. From compound plate, 100 nL of compound were dispensed directly into wells of the assay plates to create a dose curve starting at 20 uM and ending at 313 nM. Assay plates were incubated at 37° C., 5% CO2 for 96 h. On day 6, assay plates were removed from the incubator and allowed to sit at room temperature for 30 min. Using a liquid handler, 20 uL of CellTiter Glo reagent was added to each well. The assay plates were shaken for 2 min and allowed to sit on the bench for 10-15 minutes. The assay plates were read using the CellTiter Glo protocol on a GloMax microplate reader, and the data analyzed using GraphPad Prism. Activities of various agents, including various stapled peptides in Table E2, were confirmed.
In some embodiments, an assessment was performed as follows. On day 0, cells were seeded in cell culture media (RPMI1640, 4% FBS) in a 96-well plate at desired density, typically at 1000 cells/well. On day 1, 10 mM agent stock solution (in DMSO) was first serially diluted into DMSO at 1:2 ratio, followed by diluting with cell culture media at two times of the final concentrations. Finally, agent-containing media were introduced to cell culture wells already having the same volume of cell culture media. Cells were incubated with agents for desired days before lysed for CellTiter-Glo® Luminescent Cell Viability Assay according to the manufacture instruction (Promega, G7570). Luminescent signal was obtained from a microplate reader (GloMax, Promega). Cell viability data was expressed as % relative to DMSO control wells.
Proliferation Assay. In some embodiments, various proliferation assays are utilized to characterize or assess provided technologies. In some embodiments, on day 0, cells were seeded in cell culture media in a 96-well plate at desired density, typically at 1000 cells/well. On day 1, 10 mM compound stock solution was first serially diluted into DMSO, followed by diluting with cell culture media at two times of the final concentrations. Finally, compound-containing media were introduced to cell culture wells already having the same volume of cell culture media. Cells were incubated with compounds for desired days before lysed for CTG according to the manufacture instruction (G7570, Promega). Luminescent signal was obtained from a microplate reader (GloMax, Promega).

Q: “Ac-PL3-Asp-Ile-B5-Asp-3COOHF-Aib-Ala-Phe-TriAzLys*3-PyrS2-Phe-34ClF-sCH2S*3-NH2 [I-1858]” was tested. Which IC50 did it give?
A: ≤ 10 µM

Q: How did the IC50 turn out when “Ac-PL3-Asp-Ile-B5-Asp-3COOHF-Aib-Ala-Phe-TriAzOrn*3-PyrS2-Phe-34ClF-sCH2S*3-NH2 [I-1860]” was run?
A: ≤ 10 µM

Q: For “Ac-PL3-Asp-Ile-B5-Asp-3COOHF-Aib-Ala-Phe-hGlnR*3-PyrS2-Phe-34ClF-Lys*3-NH2 [I-1372]”, which IC50 is on record?
A: ≤ 10 µM

Q: “Ac-PL3-Asp-Ile-B5-Asp-3COOHF-Aib-Ala-Phe-sAla*3-PyrS2-Phe-34ClF-TriAzLys*3-NH2 [I-1857]” was tested. Which IC50 did it give?
A: 10 to 20 µM

Q: Which IC50 does the source give for “Ac-PL3-Asp-Ile-B5-Asp-3COOHF-Aib-Ala-Phe-sCH2S*3-PyrS2-Phe-34ClF-TriAzLys*3-NH2 [I-1859]” here?
A: ≤ 10 µM

Q: For “Ac-PL3-Asp-Ile-B5-Asp-3COOHF-Aib-Ala-Phe-sCH2S*3-PyrS2-Phe-34ClF-TriAzOrn*3-NH2 [I-1862]”, which IC50 is on record?
A: ≤ 10 µM

Q: How did the IC50 turn out when “Ac-PL3-Asp-Ile-B5-Asp-3COOHF-Ala-Ala-Phe-Lys*3-PyrS2-3Thi-BztA-GlnR*3-Ala-NH2 [I-970]” was run?
A: ≤ 10 µM

Q: How did the IC50 turn out when “Ac-PL3-Asp-Ile-B5-Asp-3COOHF-Ala-Ala-Phe-TriAzLys*3-PyrS2-Phe-34ClF-sAla*3-NH2 [I-1863]” was run?
A: ≤ 10 µM

Q: With “Ac-PL3-Asp-Ile-B5-Asp-3COOHF-Ala-Ala-Phe-TriAzLys*3-PyrS2-Phe-34ClF-sCH2S*3-NH2 [I-1865]” as the substance, how does the IC50 read?
A: ≤ 10 µM

Q: With “Ac-PL3-Asp-Ile-B5-Asp-3COOHF-Ala-Ala-Phe-sAla*3-PyrS2-Phe-34ClF-TriAzLys*3-NH2 [I-1864]” as the substance, how does the IC50 read?
A: > 20 µM

Q: For “Ac-PL3-Asp-Ile-B5-Asp-3COOHF-Ala-Ala-Phe-sCH2S*3-PyrS2-Phe-34ClF-TriAzLys*3-NH2 [I-1866]”, which IC50 is on record?
A: 10 to 20 µM

Q: How did the IC50 turn out when “Ac-PL3-Asp-Ile-B5-Asp-3COOHF-Ala-Ala-Phe-sCH2S*3-PyrS2-Phe-34ClF-TriAzOrn*3-NH2 [I-1869]” was run?
A: ≤ 10 µM

Q: “Ac-PL3-Asp-Ile-B5-Asp-3COOHF-CyLeu-Ala-Phe-Lys*3-PyrS2-3Thi-34ClF-GlnR*3-NH2 [I-1040]” was tested. Which IC50 did it give?
A: ≤ 10 µM

Q: How did the IC50 turn out when “Ac-PL3-Asp-Ile-B5-Asp-3COOHF-CyLeu-Ala-Phe-Lys*3-PyrS2-3Thi-34ClF-GlnR*3-Val-Thr-Ala-NH2 [I-1268]” was run?
A: ≤ 10 µM

Q: Which IC50 does the source give for “Ac-PL3-Asp-Ile-B5-Asp-3COOHF-CyLeu-Ala-Phe-Lys*3-PyrS2-Phe-34ClF-GlnR*3-NH2 [I-1052]” here?
A: ≤ 10 µM

Q: Which IC50 does the source give for “Ac-PL3-Asp-Ile-B5-Asp-3COOHF-Phe-Ala-Phe-Lys*3-PyrS2-3Thi-34MeF-GlnR*3-NH2 [I-1102]” here?
A: ≤ 10 µM

Q: Which IC50 does the source give for “Ac-PL3-Asp-Ile-B5-Asp-3COOHF-Phe-Ala-Phe-Lys*3-PyrS2-Phe-34MeF-GlnR*3-Ala-NH2 [I-1106]” here?
A: ≤ 10 µM

Q: How did the IC50 turn out when “Ac-PL3-Asp-Ile-B5-Asp-3COOHF-Phe-Ala-Phe-Lys*3-PyrS2-Phe-34MeF-GlnR*3-NH2 [I-1107]” was run?
A: ≤ 10 µM

Q: How did the IC50 turn out when “Ac-PL3-Asp-Npg-B5-3COOHF-Asp-Aib-Ala-Phe-Lys*3-PyrS2-3Thi-BztA-GlnR*3-Ala-NH2 [I-742]” was run?
A: > 20 µM

Q: “Ac-PL3-Asp-Npg-B5-Asp-3COOHF-Aib-Ala-Phe-Lys*3-PyrS2-2FF-34ClF-GlnR*3-NH2 [I-1537]” was tested. Which IC50 did it give?
A: ≤ 10 µM

Q: How did the IC50 turn out when “Ac-PL3-Asp-Npg-B5-Asp-3COOHF-Aib-Ala-Phe-Lys*3-PyrS2-2NH2F-BztA-GlnR*3-Ala-NH2 [I-1736]” was run?
A: ≤ 10 µM

Q: How did the IC50 turn out when “Ac-PL3-Asp-Npg-B5-Asp-3COOHF-Aib-Ala-Phe-Lys*3-PyrS2-3Thi-34ClF-GlnR*3-Ala-Ala-Ala-[mPEG8]-Lys [I-1707]” was run?
A: ≤ 10 µM

Q: For “Ac-PL3-Asp-Npg-B5-Asp-3COOHF-Aib-Ala-Phe-Lys*3-PyrS2-3Thi-34ClF-GlnR*3-Ala-Ala-Ala-[mPEG37]-Lys [I-1708]”, which IC50 is on record?
A: ≤ 10 µM

Q: How did the IC50 turn out when “Ac-PL3-Asp-Npg-B5-Asp-3COOHF-Aib-Ala-Phe-Lys*3-PyrS2-3Thi-34ClF-GlnR*3-NH2 [I-867]” was run?
A: ≤ 10 µM

Q: With “Ac-PL3-Asp-Npg-B5-Asp-3COOHF-Aib-Ala-Phe-Lys*3-PyrS2-3Thi-34ClF-GlnR*3-Pro-NH2 [I-868]” as the substance, how does the IC50 read?
A: ≤ 10 µM

Q: “Ac-PL3-Asp-Npg-B5-Asp-3COOHF-Aib-Ala-Phe-Lys*3-PyrS2-3Thi-34ClF-GlnR*3-Ser-NH2 [I-869]” was tested. Which IC50 did it give?
A: ≤ 10 µM

Q: How did the IC50 turn out when “Ac-PL3-Asp-Npg-B5-Asp-3COOHF-Aib-Ala-Phe-Lys*3-PyrS2-3Thi-BztA-GlnR*3-Ala-Ala-Arg-Ala-Ala-Ala-Ala-NH2 [I-1155]” was run?
A: ≤ 10 µM

Q: With “Ac-PL3-Asp-Npg-B5-Asp-3COOHF-Aib-Ala-Phe-Lys*3-PyrS2-3Thi-BztA-GlnR*3-Ala-Ala-Arg-Ala-Ala-Ala-Arg-NH2 [I-1157]” as the substance, how does the IC50 read?
A: ≤ 10 µM

Q: “Ac-PL3-Asp-Npg-B5-Asp-3COOHF-Aib-Ala-Phe-Lys*3-PyrS2-3Thi-BztA-GlnR*3-Ala-Ala-Leu-Leu-NH2 [I-806]” was tested. Which IC50 did it give?
A: ≤ 10 µM

Q: How did the IC50 turn out when “Ac-PL3-Asp-Npg-B5-Asp-3COOHF-Aib-Ala-Phe-Lys*3-PyrS2-3Thi-BztA-GlnR*3-Ala-Ala-Leu-NH2 [I-805]” was run?
A: ≤ 10 µM

Q: How did the IC50 turn out when “Ac-PL3-Asp-Npg-B5-Asp-3COOHF-Aib-Ala-Phe-Lys*3-PyrS2-3Thi-BztA-GlnR*3-Ala-Ala-Lys-Ala-Ala-Ala-Lys-NH2 [I-1158]” was run?
A: ≤ 10 µM

Q: Which IC50 does the source give for “Ac-PL3-Asp-Npg-B5-Asp-3COOHF-Aib-Ala-Phe-Lys*3-PyrS2-3Thi-BztA-GlnR*3-Ala-Ala-Lys-Leu-Pro-Val-nLeu-NH2 [I-815]” here?
A: ≤ 10 µM

Q: “Ac-PL3-Asp-Npg-B5-Asp-3COOHF-Aib-Ala-Phe-Lys*3-PyrS2-3Thi-BztA-GlnR*3-Ala-Ala-Val-Pro-Ala-Leu-Arg-NH2 [I-817]” was tested. Which IC50 did it give?
A: ≤ 10 µM

Q: With “Ac-PL3-Asp-Npg-B5-Asp-3COOHF-Aib-Ala-Phe-Lys*3-PyrS2-3Thi-BztA-GlnR*3-Ala-Ala-Val-Pro-Thr-Leu-Lys-NH2 [I-813]” as the substance, how does the IC50 read?
A: ≤ 10 µM

Q: With “Ac-PL3-Asp-Npg-B5-Asp-3COOHF-Aib-Ala-Phe-Lys*3-PyrS2-3Thi-BztA-GlnR*3-Ala-Arg-Ala-Ala-Ala-Arg-Ala-NH2 [I-1156]” as the substance, how does the IC50 read?
A: ≤ 10 µM

Q: “Ac-PL3-Asp-Npg-B5-Asp-3COOHF-Aib-Ala-Phe-Lys*3-PyrS2-3Thi-BztA-GlnR*3-Ala-Lys-Leu-Pro-Val-nLeu-NH2 [I-814]” was tested. Which IC50 did it give?
A: ≤ 10 µM

Q: Which IC50 does the source give for “Ac-PL3-Asp-Npg-B5-Asp-3COOHF-Aib-Ala-Phe-Lys*3-PyrS2-3Thi-BztA-GlnR*3-Ala-Val-Pro-Ala-Leu-Arg-NH2 [I-816]” here?
A: ≤ 10 µM

Q: For “Ac-PL3-Asp-Npg-B5-Asp-3COOHF-Aib-Ala-Phe-Lys*3-PyrS2-3Thi-BztA-GlnR*3-Ala-Val-Pro-Thr-Leu-Lys-NH2 [I-812]”, which IC50 is on record?
A: ≤ 10 µM

Q: Which IC50 does the source give for “Ac-PL3-Asp-Npg-B5-Asp-3COOHF-Aib-Ala-Phe-Lys*3-PyrS2-3Thi-BztA-GlnR*3-Leu-Ser-NH2 [I-785]” here?
A: ≤ 10 µM

Q: Which IC50 does the source give for “Ac-PL3-Asp-Npg-B5-Asp-3COOHF-Aib-Ala-Phe-Lys*3-PyrS2-3Thi-BztA-GlnR*3-Pro-NH2 [I-719]” here?
A: ≤ 10 µM

Q: “Ac-PL3-Asp-Npg-B5-Asp-3COOHF-Aib-Ala-Phe-Lys*3-PyrS2-3Thi-BztA-GlnR*3-Ser-NH2 [I-721]” was tested. Which IC50 did it give?
A: ≤ 10 µM

Q: How did the IC50 turn out when “Ac-PL3-Asp-Npg-B5-Asp-3COOHF-Aib-Ala-Phe-Lys*3-PyrS2-3Thi-BztA-GlnR*3-[mPEG4]Lys-NH2 [I-1181]” was run?
A: > 20 µM

Q: Which IC50 does the source give for “Ac-PL3-Asp-Npg-B5-Asp-3COOHF-Aib-Ala-Phe-Lys*3-PyrS2-3Thi-BztA-GlnR*3-[mPEG8]Lys-NH2 [I-1182]” here?
A: > 20 µM

Q: With “Ac-PL3-Asp-Npg-B5-Asp-3COOHF-Aib-Ala-Phe-Lys*3-PyrS2-3Thi-BztA-GlnR*3-[mPEG16]Lys-NH2 [I-1183]” as the substance, how does the IC50 read?
A: ≤ 10 µM

Q: For “Ac-PL3-Asp-Npg-B5-Asp-3COOHF-Aib-Ala-Phe-Lys*3-PyrS2-3Thi-BztA-GlnR*3-dPro-NH2 [I-720]”, which IC50 is on record?
A: ≤ 10 µM

Source: US20240360179A1, “STAPLED PEPTIDES AND METHODS THEREOF” (FOG PHARMACEUTICALS, INC., priority 2021, published 2024)
